# Measured values: US10716778B2, “Use of compounds that are able to increase the serum IGF-1 level for the preparation of a therapeutical composition for treatment of various disease states associated with a reduced IGF-1 serum level in humans and animals” (VEIJLEN N.V., priority 2003, dated 2020)
# Where “and” joins values, the source holds several entries; their conditions need not be identical. Equal entries are not always repeated.
# Assays:
# [1] = test system: piglets that had a history of PRRSV; experiment: Health condition of problem piglets (group P) with history of PRRSV treated with IAA (Example 9); type: in vivo, Belgian Land Race piglets; conditions: after ten days of treatment
# Method: (§1) The piglets were weaned at four weeks and relocated, twelve piglets per pen. IGF-1 levels from three different groups were tested at the age of five weeks.
# (§2) These are the pigs with the big problems. They are looking poor, have a low weight, bad color and some of them have Staphylococcus infections. It was the firm belief of the farmer and the veterinarian that these piglets would not reach the end of the fattening cycle. Blood samples were taken at random from five of the twelve piglets.
# (§3) After seeing the low IGF-1 levels in group P, it was decided to give them the same treatment as in humans with CFS. The average weight of the piglets would have been around seven kilos at five weeks of age. They were treated with 125 mg of the composition comprising 5 mg IAA and 120 mg NaCl and WPC 70 for ten days. The product was fed in a trough, mixed in liquid feed. All the piglets ate from the same trough.
# [2] = test system: athletes; experiment: Performance and recovery of athletes (Example 6); type: in vivo, human; conditions: group that received IAA; 12 weeks intensive training; placebo performances decreased
# Method: Twenty athletes entered the study. Other medication was excluded from the research. The period of the treatment was 12 weeks. They were not allowed to take any other medication or food supplements. They continued their level of training. After 2 weeks, the training was intensified by 25%. At baseline, at the start, after 2 weeks, 4 weeks, 6 weeks, 8 weeks, 10 weeks and 12 weeks, IGF-1 and safety parameters (liver tests, hematology) were determined. The group was divided into two groups of ten athletes. Group A received IAA; group B got a placebo.
# The following schedule was used for the supplements. 1 IAA capsule contained 10 mg IAA, 100 mg NaCl, 140 mg WPC 70. One Glutamine capsule contained 500 mg glutamine. The amino acids that were taken are as described in Table 1.
# [3] = test system: IGF-BP3; experiment: Plasma IGF-BP3 level in eight CFS patients treated with the composition (Example 1); type: in vivo, human
# Method: (§4) Eight patients suffering from severe chronic fatigue syndrome (CFS) were studied over a 5- to 7-month period. In this period, they were treated with a therapeutical composition of the disclosure in the form of a food supplement, which comprised IAA as the active ingredient. All subjects were unable to do their job or to perform very light physical exercise.
# (§5) Before entering the study, the subjects underwent a careful medical examination to exclude any other disease. Blood was assayed for insulin-like growth factor 1 (IGF-1) and its major binding protein IGF-BP3 was sampled at 0, 1, 3 and 5 to 7 months of treatment because the total amount of IGF-1 in serum minus the amount of IGF-BP3 is the amount of free IGF-1. Free IGF-1 is the active serum fraction. Also at 0, 1, 3 and 5 to 7 months, job participation and physical activities were registered and calculated as percentage of normal, before disease pattern.
# (§6) Eight women varying in age from 25 to 53 years having severe complaints of fatigue that made it impossible to function normally, both at work and in free time. All reported an excessive need for sleep, which was never refreshing even though it was prolonged (more than 12 hours). After excluding all other diseases and infections, they were all diagnosed for CFS.
# (§7) Blood samples of 20 ml were taken and liver and kidney functions, the red and white hemogram, IGF-1 and IGF-BP3 determined. The patients took 1000 mg/day (corresponding to 40 mg IAA and 960 mg salt and WPC 70) of the composition of the disclosure for 4 weeks. After this, the dosage was reduced by 250 mg (corresponding to 10 mg IAA) every 2 weeks to 750 mg/day, 500 mg/day 250 mg/day, respectively. […]
# (§8) At the start of the study and at each check-up point, the work participation and physical activity pattern were scored on a scale from 1 to 10 and plotted as the percentage of the patient's normal activities. […] IGF-BP3 was determined by means of an immunoassay (DSL-5600 ACTIVE™, DSL Deutschland GmbH, Germany) having an intra-assay variance of 4.4% and an inter-assay variance of 6.6%. […]
# [4] = test system: HbA1c; experiment: HbA1c in type 2 diabetic patients during medication with IAA (Example 4); type: in vivo, human; conditions: for HbA1c: acetic acid
# Description: Five male type 2 diabetic patients took part in the study. They were all very difficult to regulate. When the study started, the average HbA1c was to be approximately 9.0%. The patients had no other clinical problems. In addition, the IgF-BP3/IgF-1 ratio had to be over 10. The age of the subjects were between 45 years and 75 years with an average of 58. The period of the investigation was 6 months. At the start of the study, after 2 month, 4 months and at the end at 6 months, blood was taken. The following parameters were checked: IGF-1 and IGF-PB-3. Also, at the start, safety parameters (liver tests, hematology) were determined. Every 8 weeks, HbA1c was determined.
# All samples from one subject were analyzed in the same run to avoid intra-assay variability. Quantification of IGF-1 was performed using an immunoradiometric assay (IRMA) (DSL-5600 ACTIVE™, DSL, Germany GmbH, Germany). Intra- and inter-assay variance was: 4.0% and 9.2% and 1.5% for IGF-1. The Hba1c was analyzed on HPLC Menarine HA 81-60.
# The total work output of every subject was calculated with a 2-way ANOVA for repeated measures and the hormone values were analyzed with the Wilcoxon test. In all cases, a p value of <0.05 was accepted as significant.
# [5] = test system: IGF-1; experiment: IGF-1 concentration in problem piglets (group P) with history of PRRSV treated with IAA (Example 9); type: in vivo, Belgian Land Race piglets; conditions: for IGF-1: group P piglets, acetic acid
# Method: as §1, §2, §3
# After ten days of treatment, random blood samples were taken from the different groups. A code was added for the size of the animals (K=small; N=normal; Z=heavy).
# At random, IGF-1 concentrations of five piglets of this group were measured.
# Three weeks later, blood samples were again taken, but only from the problem group.
# [6] = test system: IGF-1; experiment: Plasma IGF-1 level in eight CFS patients treated with the composition (Example 1); type: in vivo, human
# Method: as §4, §5, §6, §7, §8
substance,measurement,setting,value
indole acetic acid [IAA],Staphylococcus infection,[1],no piglets suffered from Staphylococcus infection anymore
same,condition of the piglets,[1],dramatically improved
same,survival,[1],All twelve pigs were still alive
same,performance of athletes at the end,[2],performed better
same,IGF-BP3 level (mean±SD),[3]; after 1 month of treatment,18.1 ± 3.5 nmol/L
same,IGF-BP3 level (mean±SD),[3]; after 5 months of treatment,13.4 ± 10.6 nmol/L
same,IGF-BP3 level (mean±SD),[3]; before treatment (baseline),25 ± 11.5 nmol/L
same,"HbA1c, average","[4]; Week 0 (start), average of 5 subjects",9.0%
same,HbA1c,"[4]; Week 0 (start), individual subjects",9.6% and 9.0% and 9.1% and 8.6% and 8.8%
same,"HbA1c, average","[4]; Week 8, average of 5 subjects",8.3%
same,HbA1c,"[4]; Week 8, individual subjects",8.9% and 8.2% and 8.3% (2×) and 7.6%
same,"HbA1c, average","[4]; Week 16, average of 5 subjects",7.4%
same,HbA1c,"[4]; Week 16, individual subjects",8.0% and 7.1% and 7.4% and 6.9% and 7.6%
same,"HbA1c, average","[4]; Week 24, average of 5 subjects",6.7%
same,HbA1c,"[4]; Week 24, individual subjects",7.4% and 6.4% and 6.6% and 6.3% and 6.8%
same,IGF-1,"[5]; age five weeks, before treatment (baseline), random individual piglets",2.3 nmol/l and <0.5 nmol/l (2×) and 2.0 nmol/l and 1.8 nmol/l
same,IGF-1,"[5]; after ten days of treatment (125 mg composition = 5 mg IAA), random individual piglets",0.8 nmol/l and <0.5 nmol/l (3×) and 4.2 nmol/l
same,IGF-1,"[5]; three weeks later, treatment stopped, individual piglets",55.6 nmol/L and 30.0 nmol/L and 23.4 nmol/L and 65.1 nmol/L and 13.7 nmol/L and 60.1 nmol/L and 36.9 nmol/L
same,change of IGF-1 levels,"[5]; group P, after ten days of treatment",did not rise
same,plasma IGF-1 level (mean±SD),[6]; after 1 month,29.5 ± 8.2 nmol/L
same,plasma IGF-1 level (mean±SD),[6]; after 5 months of treatment,35 ± 10 nmol/L
same,plasma IGF-1 level (mean±SD),[6]; before treatment (baseline),18 ± 5 nmol/L
